# Columns and labels:
# [1] = target: T1, TYK2-JH2 (aa 575-869, in-house) protein (Homo sapiens, UniProt P29597); assay: TYK2-JH2 biochemical assay (HTRF, blocking of TYK2-JH2 protein with its probe); type: binding; conditions: for IC50: HTRF, 0.2 nM recombinant TYK2-JH2, Probe 1; for Biochemical assay Selectivity fold (TYK2/JAK1): TYK2-JH2 vs JAK1-JH2 biochemical IC50
# T1 construct: TYK2-JH2 (aa 575-869, in-house) protein; made in house
# Method: Assay A: TYK2-JH2 Biochemical Assay
# Compounds disclosed herein were tested for blocking of TYK2-JH2 (aa 575-869, in-house) protein with its probe in an assay based on Homogeneous Time Resolved Fluorescence.
# Compound dilution is done according to the following protocol: (1) Prepare 500× compounds solution in DMSO from 500 uM by 5-fold dilution, total 10 doses were included; (2) Prepare 10× compounds solution in an assay buffer containing 20 mM HEPES, pH 7.5, 10 mM MgCl2, 0.005% BSA, 2 mM DTT, 0.015% Brij-35 by transferring 1 μl serial 500× stock solution into 49 μl assay buffer. 4 μl of 0.2 nM recombinant TYK2-JH2 protein was pre-incubated with 1 μl of 10×serial dilution of compounds at room temperature for 0.5 hour. Then 5 μl of 10 nM in-house Probe 1 (6-((3,5-dimethylphenyl)amino)-8-((4,26-dioxo-30-((3aS,4S,6aR)-2-oxohexahydro-1H-thieno[3,4-d]imidazol-4-yl)-7,10,13,16,19,22-hexaoxa-3,25-diazatriacontyl)amino)imidazo[1,2-b]pyridazine-3-carboxamide, KD=10 nM), 5 μl Mab Anti-6His Tb cryptate Gold (Cat: 61HI2TLB, Cisbio Bioassays) and Streptavidin-XL665(Cat: 610SAXLB, Cisobio Bioassays) mixture were added to plate and further incubated at room temperature for 1 hour. The HTRF signals (ex337 nm, em620 nm/665 nm) were read on BMG PHERAstar FS instrument. The inhibition percentage of TYK2 interaction with its probe in presence of increasing concentrations of compounds was calculated based on the ratio of fluorescence at […]. The IC50 for each compound was derived from fitting the data to the four-parameter logistic equation by Dotmatics.
# [2] = target: T2, JAK1-JH2 protein (aa 561-860, in-house) (Homo sapiens, UniProt P23458); assay: JAK1-JH2 biochemical assay (HTRF, blocking of JAK1-JH2 protein with its probe); type: binding; conditions: 1.17 nM recombinant JAK1-JH2, Probe 2
# T2 construct: JAK1-JH2 protein (aa 561-860, in-house); made in house
# Method: Assay B: JAK1-JH2 Biochemical Assay
# Compounds disclosed herein were tested for blocking of JAK1-JH2 protein (aa 561-860, in-house) with its probe in an assay based on Homogeneous Time Resolved Fluorescence. Compound dilution is done according to the following protocol: (1) Prepare 500× compounds solution in DMSO from 500 uM by 5-fold dilution, total 10 doses were included; (2) Prepare 10× compounds solution in an assay buffer containing 20 mM HEPES, pH 7.5, 10 mM MgCl2, 0.005% BSA, 2 mM DTT, 0.015% Brij-35 by transferring 1 μl serial 500× stock solution into 49 μl assay buffer. 4 μL of 1.17 nM recombinant JAK1-JH2 protein was pre-incubated with 1 μl of 10×serial dilution of compounds at room temperature for 0.5 hour. […] The HTRF signals (ex337 nm, em620 nm/665 nm) were read on BMG PHERAstar FS instrument. The inhibition percentage of JAK1 interaction with its probe in presence of increasing concentrations of compounds was calculated based on the ratio of fluorescence at 615 nm to that at 665 nm. The IC50 for each compound was derived from fitting the data to the four-parameter logistic equation by Dotmatics.
# [3] = test system: JAK2, TYK2/p-STAT4 (Tyr693) activated by IL-12 in NK-92 cell line; assay: IL-12-JAK2, TYK2/p-STAT4 (Tyr693) inhibition cellular assay; type: cell-based; conditions: for IC50: NK92, 0.5 h, NK-92 cells, IL-12 40 ng/ml, 30 min, read-out: Cellular assay pSTAT4/IL-12 IC50; for Cellular assay Selectivity fold (TYK2/JAK1): pSTAT4/IL-12 vs pSTAT3/IL-6 cellular IC50
# Excerpt: Assay C: IL-12-JAK2, TYK2/p-STAT4 (Tyr693) Inhibition IC50 Cellular Assay
# To evaluate the inhibition effect of compounds disclosed herein on JAK2, TYK2/p-STAT4 (Tyr693) activated by IL-12 in NK-92 cell line, NK-92 cells were collected and washed 3 times by DPBS and resuspended in MEM-α(GIBCO,Cat #12561056) with 10% FBS (Gibco, Cat #10099, Lot #1891605), without IL-2 (R&D systems,Cat #202-IL), starved overnight. Cells were collected and resuspended in 1640 medium (phenol red free, Gibco, Cat #11835-030) with 0.1% BSA, and 12.5 μl/5×10^4/well cell suspension were seeded to the 96-well plate (Corning, Cat #3799). Then cells were treated with compounds diluted in 0.2% DMSO 1640 medium, at 37° C., 1 h. Dilution is done according to the following protocol: (1) make 500× compounds solution in DMSO from 5 mM by 4-fold dilution, total 8 doses were included; (3) make 2× compounds solution in assay medium by transferring 0.5 μl serial 500× stock solution into 125 μl assay medium; (4) 15 μl of 2× serial solution is added to cells and incubate at 37° C. for 1 h, the final compound conc. is 10000,2500,625,156.25,39,9.8,2.4 and 0.61 nM, respectively. After 1 h, cells were treated with 2.5 μl medium containing IL-12 at 37° C. (R&D systems, Cat #219-IL-005, final conc.40 ng/ml), 30 min. Following cells were lysed with 7.5 μl lysis buffer at RT, shaking on shaker for 1 h. 10 μL of cell lysate were transferred to a PE 384-well Proxiplate detection plate, and 5 μL of pre-mixed Alphascreen beads were added to each well. Covered the plate with a plate sealer, span 1000 rpm for 1 min, mix, Incubated overnight at room temperature. Read on BMG PheraStar with Alphascreen protocol. IC 50 values were calculated by fitting dependent data to the four-parameter logistic model using dotmatics software. The assay was performed by using AlphaLISA SureFire Ultra p-STAT4 (Tyr693) Assay Kit—High Volume (PE, Cat #ALSU-PST4-A-HV).
# [4] = test system: JAK1/p-STAT3(Tyr705) activated by IL-6 in TF-1 cell line; assay: IL-6-JAK1/p-STAT3(Tyr705) inhibition cellular assay; type: cell-based; conditions: Homo sapiens, 0.5 h; TF-1 cells, IL-6 50 ng/ml, 30 min; read-out: Cellular assay pSTAT3/IL-6 IC50
# Excerpt: Assay D: IL-6-JAK1/p-STAT3(Tyr705) Inhibition IC50 Cellular Assay
# To evaluate the inhibition effect of compounds disclosed herein on JAK1/p-STAT3(Tyr705) activated by IL-6 in TF-1 cell line, TF-1 cells were collected and washed 3 times by DPBS and resuspended in RPMI-1640 (phenol red free, Gibco, Cat #11835-030) with 0.1% FBS (Gibco, Cat #10099, Lot #1891605), without GM-CSF(R&D systems,Cat #215-GM-050), starved overnight. Cells were collected and resuspended in 1640 medium (phenol red free, Gibco, Cat #11835-030) with 0.1% BSA, and 12.5 μl/10×10^4/well cell suspension were seeded to the 96-well plate (Corning, Cat #3799). Then cells were treated with compounds diluted in 0.2% DMSO 1640 medium, at 37° C., 1 h. Dilution is done according to the following protocol: (1) make 500× compounds solution in DMSO from 5 mM by 4-fold dilution, total 8 doses were included; (3) make 2× compounds solution in assay medium by transferring 0.5 μl serial 500× stock solution into 125 μl assay medium; (4) 15 μl of 2× solution is added to cells and incubate at 37° C. for 1 h, the final compound conc. is 10000,2500,625,156.25,39,9.8,2.4 and 0.61 nM, respectively. After 1 h, cells were treated with 2.5 μl medium containing IL-6 at 37° C. (R&D systems, Cat #206-IL-010, final conc.50 ng/ml), 30 min. Following cells were lysed with 10 μl lysis buffer at RT, shaking on shaker for 1 h. 16 μL of cell lysate were transferred to a PE 384-well HTRF detection plate, and 4 μL of pre-mixed HTRF antibodies were added to each well. Covered the plate with a plate sealer, span 1000 rpm for 1 min, mix, Incubated overnight at room temperature. Read on BMG PheraStar with HTRF protocol (337 nm-665 nm-620 nm). IC 50 values were calculated by fitting dependent data to the four-parameter logistic model using dotmatics software. The assay was performed by using HTRF Phospho-STAT3(Tyr705) Cellular Assay Kit (Cisbio, Cat #62AT3PEG).
# T1 sequence (P29597 575-869): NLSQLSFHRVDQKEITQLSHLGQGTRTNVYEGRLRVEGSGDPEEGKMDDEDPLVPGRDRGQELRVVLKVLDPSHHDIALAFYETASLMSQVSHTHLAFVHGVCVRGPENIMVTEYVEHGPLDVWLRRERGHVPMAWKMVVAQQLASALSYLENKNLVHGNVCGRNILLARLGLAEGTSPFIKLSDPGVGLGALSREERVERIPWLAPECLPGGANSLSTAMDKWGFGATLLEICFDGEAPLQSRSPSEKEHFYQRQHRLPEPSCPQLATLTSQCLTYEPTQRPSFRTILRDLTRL
# T2 sequence (P23458 561-860): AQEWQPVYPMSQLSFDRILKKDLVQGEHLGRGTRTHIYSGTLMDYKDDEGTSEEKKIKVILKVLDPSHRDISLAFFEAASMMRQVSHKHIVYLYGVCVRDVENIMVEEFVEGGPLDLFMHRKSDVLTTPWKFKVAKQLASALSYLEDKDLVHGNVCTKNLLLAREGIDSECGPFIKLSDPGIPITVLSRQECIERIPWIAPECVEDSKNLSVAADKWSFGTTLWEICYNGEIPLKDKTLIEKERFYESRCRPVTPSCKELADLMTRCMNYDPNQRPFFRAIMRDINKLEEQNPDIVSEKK
IC50 [1],Biochemical assay Selectivity fold (TYK2/JAK1) [1],IC50 [2],IC50 [3],IC50 [4],Structure (SMILES),Cellular assay Selectivity fold (TYK2/JAK1) [3]
456 nM,>22 fold,> 10000 nM,,,"CNC(=O)c1nnc(NC(=O)C2CC2)cc1Nc1nc2ccccc2o1 [Example A1, 4-(benzo[d]oxazol-2-ylamino)-6-(cyclopropanecarboxamido)-N-methylpyridazine-3-carboxamide]",
34 nM,5 fold,174 nM,,,"CNC(=O)c1nnc(NC(=O)C2CC2)cc1Nc1nc2ccccc2n1C [Example A2, 6-(cyclopropanecarboxamido)-N-methyl-4-((1-methyl-1H-benzo[d]imidazol-2-yl)amino) pyridazine-3-carboxamide]",
1.4 nM,2.6 fold,3.7 nM,,,"CNC(=O)c1nnc(NC(=O)C2CC2)cc1Nc1nc2ccccc2[nH]1 [Example A3, 4-((1H-benzo [d]imidazol-2-yl)amino)-6-(cyclopropane-carboxamido)-N-methyl-pyridazine-3-carboxamide]",
0.16 nM,8 fold,1.3 nM,104 nM,2410 nM,"CNC(=O)c1nnc(NC(=O)C2CC2)cc1Nc1nc2ccccn2n1 [Example A4, 4-([1,2,4]triazolo[1,5-a]pyridin-2-ylamino)-6-(cyclopropane-carboxamido)-N-methyl-pyridazine-3-carboxamide]",23 fold
0.56 nM,23 fold,13 nM,> 10000 nM,> 10000 nM,"CNC(=O)c1nnc(NC(=O)C2CC2)cc1Nc1nc2ccc(P(C)(C)=O)cn2n1 [Example A5, 6-(cyclopropanecarboxamido)-4-((6-(dimethylphosphoryl)-[1,2,4]triazolo[1,5-a]pyridin-2-yl)amino)-N-methyl-pyridazine-3-carboxamide]",
0.936 nM,2 fold,2.03 nM,3530 nM,> 10000 nM,"CNC(=O)c1nnc(NC(=O)C2CC2)cc1Nc1nc2cc(OC)c(N3CCC3)cn2n1 [Example B1, 4-((6-(azetidin-1-yl)-7-methoxy-[1,2,4]triazolo[1,5-a]pyridin-2-yl)amino)-6-(cyclopropanecarboxamido)-N-methylpyridazine-3-carboxamide]",>3 fold
0.1 nM,13 fold,1.3 nM,,,"CNC(=O)c1nnc(NC(=O)C2CC2)cc1Nc1nc2ccc(OC3CN(C(=O)OC(C)(C)C)C3)cn2n1 [Example C1, tert-butyl 3-((2-((6-(cyclopropanecarboxamido)-3-(methylcarbamoyl)pyridazin-4-yl)amino)-[1,2,4]triazolo[1,5-a]pyridin-6-yl)oxy)azetidine-1-carboxylate]",
0.14 nM,9 fold,1.2 nM,,,"CNC(=O)c1nnc(NC(=O)C2CC2)cc1Nc1nc2ccc(OC3CNC3)cn2n1 [Example C2, 4-((6-(azetidin-3-yloxy)-[1,2,4]triazolo[1,5-a]pyridin-2-yl)amino)-6-(cyclopropanecarboxamido)-N-methylpyridazine-3-carboxamide]",
0.08 nM,15 fold,1.2 nM,68.8 nM,> 10000 nM,"CNC(=O)c1nnc(NC(=O)C2CC2)cc1Nc1nc2ccc(OC3CN(S(C)(=O)=O)C3)cn2n1 [Example C3, 6-(cyclopropanecarboxamido)-N-methyl-4-((6-((1-(methylsulfonyl)azetidin-3-yl)oxy)-[1,2,4]triazolo[1,5-a]pyridin-2-yl)amino)pyridazine-3-carboxamide]",>145 fold
0.18 nM,32 fold,5.8 nM,,,"CNC(=O)c1nnc(NC(=O)C2CC2)cc1Nc1nc2ccc(N3CCC(N4CCC4)CC3)cn2n1 [Example E11, 4-((6-(4-(azetidin-1-yl)piperidin-1-yl)-[1,2,4]triazolo[1,5-a]pyridin-2-yl)amino)-6-(cyclopropanecarbox-amido)-N-methyl-pyridazine-3-carboxamide]",
